# Like-named read-outs stand apart in the source and are kept apart here.
# Legend:
# [1] = test system: Pectobacterium carotovorum SCC1; experiment: Inhibition of soft rot lesion in cucumber leaf; assay type: in vivo
# [2] = test system: Pectobacterium carotovorum SCC1; experiment: Inhibition of soft rot lesion in tobacco leaf; assay type: in vivo
# cucumber leaf = experiment: Promotion of growth of cucumber leaf; settings: for response vs control in vivo at 1 ppm / response vs control in vivo at 10 ppm / response vs control in vivo at 100 ppm: Cucumis sativus, read-out: Width of leaf; for Width of leaf: relative values with respect to the control group (89.9 mm) = 100.0
# Procedure: Plant leaves were tested with test compounds by drenching. […] 3-5 days later, the width of the leaves was measured again to compare the growth of the leaves relative to the control group.
# Colletotrichum acutatum = experiment: Inhibition of anthracnose in red pepper fruit after soil drench; settings: for Appearance of anthracnose: control 50
# [3] = test system: Colletotrichum orbiculare; assay type: in vivo; settings: cucumber; for Number of anthractic lesions in first leaf: control 12.5; for Number of anthractic lesions in second leaf: control 96.8
# [4] = 100 ppm, Table 5, control 73.75
compound,measurement,setting,value
"CC(C)CC1NC(=O)C(C(C)O)NC1=O (stereo not drawn) [Compound No. 3, 3-(1-hydroxyethyl)-6-(2-methylpropyl)-2,5-diketopiperazine]",Area of lesion,"[1]; 1 ppm, Table 6, control 100",45%
same,Area of lesion,"[1]; 10 ppm, Table 6, control 100",45%
same,Area of lesion,"[1]; 100 ppm, Table 6, control 100",42.5%
same,Area of lesion,"[2]; 1 ppm, Table 3, control 87.5",20%
same,Area of lesion,"[2]; 10 ppm, Table 3, control 87.5",10%
same,Area of lesion,"[2]; 100 ppm, Table 3, control 87.5",0%
"CC(O)C1NC(=O)C2CCCN2C1=O (stereo not drawn) [Compound No. 33, 3-(1-hydroxyethyl)hexahydropyrrolo[1,2-a]pyrazin-1,4-dione]",response vs control in vivo at 1 ppm,cucumber leaf,109%
same,response vs control in vivo at 10 ppm,cucumber leaf,117%
same,response vs control in vivo at 100 ppm,cucumber leaf,110%
"CC1NC(=O)C(Cc2ccc(O)cc2)NC1=O (stereo not drawn) [Compound No. 10, 3-methyl-6-(4-hydroxybenzyl)-2,5-diketopiperazine]",melting point,,276 to 280 °C (dec.)
"O=C1C2CCCN2C(=O)C2CCCN12 (stereo not drawn) [Compound No. 31, octahydropyrrolo[1,2-a:1′,2′-d]pyrazin-5,10-dione]",Area of lesion,"[1]; 1 ppm, Table 7, control 100",95%
same,Area of lesion,"[1]; 10 ppm, Table 7, control 100",78%
same,Area of lesion,"[1]; 100 ppm, Table 7, control 100",80%
same,Width of leaf,cucumber leaf; 1.0 ppm,104.2
same,Width of leaf,cucumber leaf; 10 ppm,103.2
same,Width of leaf,cucumber leaf; 100 ppm,102.8
same,Area of lesion,"[2]; 1 ppm, Table 4, control 100",47.5%
same,Area of lesion,"[2]; 10 ppm, Table 4, control 100",60%
same,Area of lesion,"[2]; 100 ppm, Table 4, control 100",17.5%
same,Appearance of anthracnose,Colletotrichum acutatum; 1 ppm,25%
same,Appearance of anthracnose,Colletotrichum acutatum; 10 ppm,25%
same,Appearance of anthracnose,Colletotrichum acutatum; 100 ppm,0%
"CC(C)C1NC(=O)CNC1=O (stereo not drawn) [Compound No. 4, 3-isopropyl-2,5-diketopiperazine]",Area of lesion,"[1]; 1 ppm, Table 6, control 100",37.5%
same,Area of lesion,"[1]; 10 ppm, Table 6, control 100",45%
same,Area of lesion,"[1]; 100 ppm, Table 6, control 100",87.5%
same,Area of lesion,"[2]; 1 ppm, Table 3, control 87.5",17.5%
same,Area of lesion,"[2]; 10 ppm, Table 3, control 87.5",52.5%
same,Area of lesion,"[2]; 100 ppm, Table 3, control 87.5",52.5%
CSCC[C@H]1NC(=O)[C@@H]2CCCN2C1=O [Compound No. 57],Area of lesion,"[1]; 1 ppm, Table 8, control 100",70%
same,Area of lesion,"[1]; 10 ppm, Table 8, control 100",72.5%
same,Area of lesion,"[1]; 100 ppm, Table 8, control 100",60%
same,Area of lesion,"[2]; 1 ppm, Table 5, control 73.75",10%
same,Area of lesion,"[2]; 10 ppm, Table 5, control 73.75",10%
same,Area of lesion,[2]; [4],12.5%
"3-(indol-3-ylmethyl)hexahydropyrrolo[1,2-a]pyrazin-1,4-dione [Compound No. 30]",Number of anthractic lesions in first leaf,[3]; 0.1 ppm,2.5
same,Number of anthractic lesions in second leaf,[3]; 0.1 ppm,66.8
same,Number of anthractic lesions in first leaf,[3]; 1 ppm,3.0
same,Number of anthractic lesions in second leaf,[3]; 1 ppm,39.0
same,Number of anthractic lesions in first leaf,[3]; 10 ppm,7.0
same,Number of anthractic lesions in second leaf,[3]; 10 ppm,35.3
same,Number of anthractic lesions in first leaf,[3]; 100 ppm,7.8
same,Number of anthractic lesions in second leaf,[3]; 100 ppm,55.3
same,Area of lesion,"[1]; 1 ppm, Table 7, control 100",88%
same,Area of lesion,"[1]; 10 ppm, Table 7, control 100",75%
same,Area of lesion,"[1]; 100 ppm, Table 7, control 100",70%
same,Width of leaf,cucumber leaf; 1.0 ppm,101.6
same,Width of leaf,cucumber leaf; 10 ppm,123.5
same,Width of leaf,cucumber leaf; 100 ppm,119.5
same,Area of lesion,"[2]; 1 ppm, Table 4, control 100",2.5%
same,Area of lesion,"[2]; 10 ppm, Table 4, control 100",7.5%
same,Area of lesion,"[2]; 100 ppm, Table 4, control 100",2.5%
same,Appearance of anthracnose,Colletotrichum acutatum; 1 ppm,0%
same,Appearance of anthracnose,Colletotrichum acutatum; 10 ppm,0%
same,Appearance of anthracnose,Colletotrichum acutatum; 100 ppm,0%
same,Appearance of anthracnose / anthractic lesion (in words),"Colletotrichum acutatum; Table 10, FIG. 9",hardly observed
"O=C1NC(Cc2ccc(O)cc2)C(=O)N2CCCC12 (stereo not drawn) [Compound No. 23, 3-(4-hydroxybenzyl)hexahydropyrrolo[1,2-a]pyrazin-1,4-dione]",response vs control in vivo at 1 ppm,cucumber leaf,97.8%
same,response vs control in vivo at 10 ppm,cucumber leaf,114%
same,response vs control in vivo at 100 ppm,cucumber leaf,110%
CC(O)C1NC(=O)C2CCCN2C1=O (stereo not drawn) [Compound No. 56],Area of lesion,"[1]; 1 ppm, Table 8, control 100",5%
same,Area of lesion,"[1]; 10 ppm, Table 8, control 100",80%
same,Area of lesion,"[1]; 100 ppm, Table 8, control 100",70%
same,Area of lesion,"[2]; 1 ppm, Table 5, control 73.75",7.5%
same,Area of lesion,"[2]; 10 ppm, Table 5, control 73.75",10%
same,Area of lesion,[2]; [4],10%
CCC(C)C1NC(=O)C2CCCN2C1=O (stereo not drawn) [Compound No. 60],Area of lesion,"[1]; 1 ppm, Table 8, control 100",50%
same,Area of lesion,"[1]; 10 ppm, Table 8, control 100",60%
same,Area of lesion,"[1]; 100 ppm, Table 8, control 100",27.5%
same,Area of lesion,"[2]; 1 ppm, Table 5, control 73.75",33.7%
same,Area of lesion,"[2]; 10 ppm, Table 5, control 73.75",25%
same,Area of lesion,[2]; [4],7.5%
CCC(C)C1NC(=O)C2CCCN2C1=O (stereo not drawn) [Compound No. 67],Area of lesion,"[2]; 1 ppm, Table 5, control 73.75",25%
same,Area of lesion,"[2]; 10 ppm, Table 5, control 73.75",35%
same,Area of lesion,[2]; [4],40%
"O=C1NC(Cc2ccccc2)C(=O)N2CCCC12 (stereo not drawn) [Compound No. 24, 3-benzylhexahydropyrrolo[1,2-a]pyrazin-1,4-dione]",response vs control in vivo at 1 ppm,cucumber leaf,98.2%
same,response vs control in vivo at 10 ppm,cucumber leaf,104%
same,response vs control in vivo at 100 ppm,cucumber leaf,102%
O=C1N[C@H](Cc2ccccc2)C(=O)N2CCC[C@@H]12 [Compound No. 58],Area of lesion,"[1]; 1 ppm, Table 8, control 100",75%
same,Area of lesion,"[1]; 10 ppm, Table 8, control 100",57.5%
same,Area of lesion,"[1]; 100 ppm, Table 8, control 100",80%
same,Area of lesion,"[2]; 1 ppm, Table 5, control 73.75",35%
same,Area of lesion,"[2]; 10 ppm, Table 5, control 73.75",25%
same,Area of lesion,[2]; [4],7.5%
CC(C)C[C@H]1NC(=O)[C@H]2CCCN2C1=O [Compound No. 61],Area of lesion,"[1]; 1 ppm, Table 8, control 100",5%
same,Area of lesion,"[1]; 10 ppm, Table 8, control 100",70%
same,Area of lesion,"[1]; 100 ppm, Table 8, control 100",75%
same,Area of lesion,"[2]; 1 ppm, Table 5, control 73.75",10%
same,Area of lesion,"[2]; 10 ppm, Table 5, control 73.75",10%
same,Area of lesion,[2]; [4],17.5%
"CCCC1NC(=O)C(C)NC1=O (stereo not drawn) [Compound No. 9, 3-methyl-6-(2-methylethyl)-2,5-diketopiperazine]",melting point,,220 to 222 °C (dec.)
"NC(=O)CC1NC(=O)C2CCCN2C1=O (stereo not drawn) [Compound No. 68, 3-carbamoylmethylhexahydropyrrolo[1,2-a]pyrazin-1,4-dione]",Area of lesion,"[2]; 1 ppm, Table 5, control 73.75",10%
same,Area of lesion,"[2]; 10 ppm, Table 5, control 73.75",7.5%
same,Area of lesion,[2]; [4],30%
"CC(C)CC1NC(=O)C2CCCN2C1=O (stereo not drawn) [Compound No. 27, 3-(2-methylpropyl)hexahydropyrrolo[1,2-a]pyrazin-1,4-dione]",response vs control in vivo at 1 ppm,cucumber leaf,111%
same,response vs control in vivo at 10 ppm,cucumber leaf,135%
same,response vs control in vivo at 100 ppm,cucumber leaf,129%
"O=C1NC(CO)C(=O)N2CCCC12 (stereo not drawn) [Compound No. 32, 3-hydroxymethylhexahydropyrrolo[1,2-a]pyrazin-1,4-dione]",response vs control in vivo at 1 ppm,cucumber leaf,98.7%
same,response vs control in vivo at 10 ppm,cucumber leaf,124%
same,response vs control in vivo at 100 ppm,cucumber leaf,112%
"CC(C)CC1NC(=O)C(CO)NC1=O (stereo not drawn) [Compound No. 1, 3-hydroxymethyl-6-(2-methylpropyl)-2,5-diketopiperazine]",Area of lesion,"[1]; 1 ppm, Table 6, control 100",95%
same,Area of lesion,"[1]; 10 ppm, Table 6, control 100",77.5%
same,Area of lesion,"[1]; 100 ppm, Table 6, control 100",50%
same,Area of lesion,"[2]; 1 ppm, Table 3, control 87.5",10%
same,Area of lesion,"[2]; 10 ppm, Table 3, control 87.5",32.5%
same,Area of lesion,"[2]; 100 ppm, Table 3, control 87.5",50%
CC(O)C1NC(=O)C2CCCN2C1=O (stereo not drawn) [Compound No. 66],Area of lesion,"[2]; 1 ppm, Table 5, control 73.75",35%
same,Area of lesion,"[2]; 10 ppm, Table 5, control 73.75",37.5%
same,Area of lesion,[2]; [4],37.5%
O=C1N[C@H](Cc2ccc(O)cc2)C(=O)N2CCC[C@H]12 [Compound No. 64],Area of lesion,"[1]; 1 ppm, Table 8, control 100",50%
same,Area of lesion,"[1]; 10 ppm, Table 8, control 100",55%
same,Area of lesion,"[1]; 100 ppm, Table 8, control 100",65%
same,Area of lesion,"[2]; 1 ppm, Table 5, control 73.75",55%
same,Area of lesion,"[2]; 10 ppm, Table 5, control 73.75",37.5%
same,Area of lesion,[2]; [4],60%
O=C1N[C@H](Cc2ccccc2)C(=O)N2CCC[C@H]12 [Compound No. 63],Area of lesion,"[1]; 1 ppm, Table 8, control 100",82.5%
same,Area of lesion,"[1]; 10 ppm, Table 8, control 100",42.5%
same,Area of lesion,"[1]; 100 ppm, Table 8, control 100",50%
same,Area of lesion,"[2]; 1 ppm, Table 5, control 73.75",15%
same,Area of lesion,"[2]; 10 ppm, Table 5, control 73.75",22.5%
same,Area of lesion,[2]; [4],65%
CSCC[C@H]1NC(=O)[C@H]2CCCN2C1=O [Compound No. 65],Area of lesion,"[2]; 1 ppm, Table 5, control 73.75",60%
same,Area of lesion,"[2]; 10 ppm, Table 5, control 73.75",57.5%
same,Area of lesion,[2]; [4],52.5%
"O=C1CNC(=O)C(Cc2c[nH]c3ccccc23)N1 (stereo not drawn) [Compound No. 5, 3-(indol-3-ylmethyl)-2,5-diketopiperazine]",Area of lesion,"[2]; 1 ppm, Table 3, control 87.5",2.5%
same,Area of lesion,"[2]; 10 ppm, Table 3, control 87.5",5%
same,Area of lesion,"[2]; 100 ppm, Table 3, control 87.5",40%
same,melting point,,280 to 284 °C (dec.)
NC(=O)CC[C@H]1NC(=O)[C@@H]2CCCN2C1=O [Compound No. 59],Area of lesion,"[1]; 1 ppm, Table 8, control 100",30%
same,Area of lesion,"[1]; 10 ppm, Table 8, control 100",32.5%
same,Area of lesion,"[1]; 100 ppm, Table 8, control 100",80%
same,Area of lesion,"[2]; 1 ppm, Table 5, control 73.75",12.5%
same,Area of lesion,"[2]; 10 ppm, Table 5, control 73.75",32.5%
same,Area of lesion,[2]; [4],47.5%
